The text below walks through data of DBAASP.

Values after ≈ are worked out from the molar mass of the structure shown. Bounds are passed on as bounds.

Common to all, as to assay: ≥ marks a high value that may be exact or a test limit, other limits are often not marked, values filed in µg/mL are converted to µM
For assay [1], the system named is Salmonella typhimurium CIP 103446.
The subject of assay [2] is Bacillus megaterium CIP 51.17.
The subject of assay [3] is Escherichia coli CIP 54.8T.
For assay [4], the system named is Aeromonas salmonicida CIP 103209T.
Assay [5] concerns Listeria monocytogenes CIP 110871.
Assay [6] has as its system Enterococcus faecalis CIP 76.117.
Assay [7] concerns Staphylococcus aureus CIP 53.156.
For assay [8], the system named is Pseudomonas aeruginosa.
In assay [9] the test system is Klebsiella pneumoniae.
Assay [10] relates to Escherichia coli UB1005.
In assay [11] the test system is Pseudomonas aeruginosa PAO1.
Assay [12] relates to Salmonella enterica subsp. enterica serovar Typhimurium ATCC 14028.
Assay [13] concerns Acinetobacter baumannii.
For assay [14], the system named is Pseudomonas aeruginosa CICC 21630.
In assay [15] the test system is Pseudomonas aeruginosa CICC 21625.
For assay [16], the system named is Escherichia coli ATCC 25922.
The test system of assay [17] is Salmonella enterica subsp. enterica serovar Typhimurium C77-31.
The test system of assay [18] is Salmonella enterica subsp. enterica serovar Pullorum C79-13.
Assay [19] deals with Escherichia coli K88.
Assay [20] relates to Pseudomonas aeruginosa ATCC 27853.
For assay [21], the system named is Escherichia coli.
The test system of assay [22] is Escherichia coli K99.

With `CC[C@H](C)[C@H](NC(=O)[C@H](CC(C)C)NC(=O)[C@H](Cc1cnc[nH]1)NC(=O)[C@H](Cc1ccccc1)NC(=O)[C@H](CO)NC(=O)[C@@H](NC(=O)[C@H](CO)NC(=O)CN)[C@@H](C)O)C(=O)N[C@@H](Cc1ccc(O)cc1)C(=O)N[C@@H](CC(N)=O)C(=O)N[C@@H](CCCCN)C(=O)N[C@@H](Cc1c[nH]c2ccccc12)C(=O)N[C@@H](Cc1ccccc1)C(=O)N[C@@H](C)C(=O)N[C@H](C(=O)N[C@@H](CCCCN)C(=O)N[C@@H](CCCN=C(N)N)C(=O)N[C@@H](CCCN=C(N)N)C(=O)N[C@@H](CCCN=C(N)N)C(=O)N[C@@H](CCCCN)C(=O)N[C@@H](CCCN=C(N)N)C(=O)O)C(C)C` [GSTSFHLIYNKWFAVKRRRKR], the MIC in assay [1] was no less than 50 µM; in [2] it was 3.16 µM (≈ 8.38 µg/mL); in [3], 3.16 µM (≈ 8.38 µg/mL); in [4], 5 µM (≈ 13.3 µg/mL); in [5] it was no less than 35.4 µM; in [6], no less than 86.6 µM. Moreover, in assay [7], the MIC was 5.1 µM (≈ 13.5 µg/mL).

`CC[C@H](C)[C@H](N)C(=O)N[C@@H](CCCCN)C(=O)N1CCC[C@H]1C(=O)N[C@H](C(=O)N[C@H](C(=O)N[C@@H](CCCCN)C(=O)N1CCC[C@H]1C(=O)N[C@H](C(=O)N[C@H](C(=O)N[C@@H](CCCCN)C(=O)N1CCC[C@H]1C(=O)N[C@H](C(=O)N[C@H](C(=O)N[C@@H](CCCCN)C(=O)N1CCC[C@H]1C(=O)N[C@H](C(N)=O)[C@@H](C)CC)[C@@H](C)CC)[C@@H](C)CC)[C@@H](C)CC)[C@@H](C)CC)[C@@H](C)CC)[C@@H](C)CC` [IKPIIKPIIKPIIKPI]: the MIC was greater than 64 µM in [8]; greater than 64 µM in assay [9]; no less than 64 µM in [10]; greater than 64 µM in [11]; greater than 64 µM in [12]; no less than 64 µM in assay [13]. In addition, the MIC was no less than 64 µM in assay [14]; no less than 64 µM in assay [15]; greater than 64 µM in [16]; no less than 64 µM in assay [17]; no less than 64 µM in assay [18]; no less than 64 µM in [19]. The MIC was greater than 64 µM in assay [20], greater than 64 µM in assay [21] and no less than 64 µM in [22].

By MIC is commonly meant the lowest concentration found to suppress growth. The low end stands for greater potency, the high end for weaker potency.
